Experimental data as given in ChEMBL document CHEMBL4651402, “Screening of ~5500 FDA-approved drugs and clinical candidates for anti-SARS-CoV-2 activity” (2021).

System: SARS-CoV-2
Assay: microbe, parasite or virus in culture
Conditions: Severe acute respiratory syndrome coronavirus 2, Vero C1008, 48 h

Compound | IC50 [µM] | IC50 (read-out: pIC50 (converted)) [µM]
N[C@@H](Cc1c[nH]c2ccccc12)C(=O)O [TRYPTOPHAN] | > 20 | > 20
Nc1ncnc2c1ccn2[C@@H]1O[C@H](CO)[C@@H](O)[C@H]1O [TUBERCIDIN] | > 20 | > 20
CC(C)(C)NCC(O)c1ccccc1Cl (stereo not drawn) [TULOBUTEROL] | > 20 | > 20
CCCCNC(=O)OCC(C)(CCC)COC(N)=O (stereo not drawn) [TYBAMATE] | > 20 | > 20
NCCc1ccc(O)cc1 [TYRAMINE] | > 20 | > 20
CC(C)C[C@H](NC(=O)[C@@H](O)[C@H](N)Cc1ccccc1)C(=O)O [UBENIMEX] | > 20 | > 20
COC1=C(OC)C(=O)C(C/C=C(\C)CC/C=C(\C)CC/C=C(\C)CC/C=C(\C)CC/C=C(\C)CC/C=C(\C)CC/C=C(\C)CC/C=C(\C)CC/C=C(\C)CCC=C(C)C)=C(C)C1=O [UBIDECARENONE] | > 20 | > 20
CC(C)=CCOc1cc(NC(=S)c2ccoc2C)ccc1Cl [UC 781] | > 20 | > 20
CC[C@@H]1CN(C(=O)NCC(F)(F)F)C[C@@H]1c1cnc2cnc3[nH]ccc3n12 [UPADACITINIB] | > 20 | > 20
O=c1cc[nH]c(=O)[nH]1 [URACIL] | > 20 | > 20
NC(N)=O [UREA] | > 20 | > 20
COc1ccc(C(=O)CC(=O)O)c2c1C=CC(C)(C)O2 [URSINOIC ACID] | > 20 | > 20
C[C@H](CCC(=O)O)[C@H]1CC[C@H]2[C@@H]3[C@@H](O)C[C@@H]4C[C@H](O)CC[C@]4(C)[C@H]3CC[C@]12C [URSODIOL] | > 20 | > 20
COC(=O)[C@H](c1ccccc1)N1CCC(c2ccc(NC(=O)c3ccccc3-c3ccc(C(F)(F)F)cc3)cc2)CC1 [USISTAPIDE] | > 20 | > 20
Cc1cccc(-c2[nH]c(CNc3ccccc3F)nc2-c2ccc3ncnn3c2)n1 [VACTOSERTIB] | > 20 | > 20
Cc1ccc2c(=O)c3cccc(CC(=O)O)c3oc2c1C [VADIMEZAN] | > 20 | > 20
CC(C)[C@H](N)C(=O)OCCOCn1cnc2c(=O)nc(N)[nH]c21 [VALACYCLOVIR] | > 20 | > 20
Cc1onc(-c2ccccc2)c1-c1ccc(S(N)(=O)=O)cc1 [VALDECOXIB] | > 20 | > 20
CC(C)[C@H](N)C(=O)OCC(CO)OCn1cnc2c(=O)[nH]c(N)nc21 (stereo partly drawn) [VALGANCICLOVIR] | > 20 | > 20
CCC(C)C(CC)C(N)=O (stereo not drawn) [VALNOCTAMIDE] | > 20 | > 20
CC(C)[C@H](N)C(=O)O[C@@H]1[C@@H](CO)O[C@@H](n2ccc(N)nc2=O)[C@]1(C)O [VALOPICITABINE] | > 20 | > 20
CCCC(CCC)C(=O)O [VALPROIC ACID] | > 20 | > 20
CCCC(CCC)C(N)=O [VALPROMIDE] | > 20 | > 20
C/C=C/C[C@@H](C)C(=O)[C@H]1C(=O)N[C@@H](C(C)C)C(=O)N(C)CC(=O)N(C)[C@@H](CC(C)C)C(=O)N[C@@H](C(C)C)C(=O)N(C)[C@@H](CC(C)C)C(=O)N[C@@H](C)C(=O)N[C@H](C)C(=O)N(C)[C@@H](CC(C)C)C(=O)N(C)[C@@H](CC(C)C)C(=O)N(C)[C@@H](C(C)C)C(=O)N1C [VALSPODAR] | > 20 | > 20
CC(C)[C@H](N)C(=O)O[C@@H]1C[C@@H](n2ccc(N)nc2=O)O[C@H]1CO [VALTORCITABINE] | > 20 | > 20

Compound | IC50 [µM] | IC50 (read-out: pIC50 (converted)) [µM]
CN[C@H](CC(C)C)C(=O)N[C@H]1C(=O)N[C@@H](CC(N)=O)C(=O)N[C@H]2C(=O)N[C@H]3C(=O)N[C@H](C(=O)N[C@H](C(=O)O)c4cc(O)cc(O)c4-c4cc3ccc4O)[C@H](O)c3ccc(c(Cl)c3)Oc3cc2cc(c3O[C@@H]2O[C@H](CO)[C@@H](O)[C@H](O)[C@H]2O[C@H]2C[C@](C)(N)[C@H](O)[C@H](C)O2)Oc2ccc(cc2Cl)[C@H]1O [VANCOMYCIN] | > 20 | > 20
COc1cc2/c(=N/c3ccc(Br)cc3F)nc[nH]c2cc1OCC1CCN(C)CC1 [VANDETANIB] | > 20 | > 20
Fc1ccc(C(OCCN2CCN(CCCc3ccccc3)CC2)c2ccc(F)cc2)cc1 [VANOXERINE] | > 20 | > 20
NC(=O)c1cnc2n1CCc1ccccc1C21CCNCC1 [VAPITADINE] | > 20 | > 20
c1cnc2cc3c(cc2n1)[C@@H]1CNC[C@H]3C1 [VARENICLINE] | > 20 | > 20
C[C@@H]1COC(Nc2ccc3ncnc(Nc4ccc(OCc5nccs5)c(Cl)c4)c3c2)=N1 [VARLITINIB] | > 20 | > 20
Clc1ccc(Nc2nnc(Cc3ccncc3)c3ccccc23)cc1 [VATALANIB] | > 20 | > 20
CC(=O)O[C@H]1C[C@@H]2CC[C@@H]3[C@H](CC[C@@]4(C)[C@H]3C[C@H]([N+]3(C)CCCCC3)[C@@H]4OC(C)=O)[C@@]2(C)C[C@@H]1N1CCCCC1 [VECURONIUM] | > 20 | > 20
C[C@]1(c2nc3c(C(N)=O)cccc3[nH]2)CCCN1 [VELIPARIB] | > 20 | > 20
Nc1c2c(nc3ccccc13)CCCC2O (stereo not drawn) [VELNACRINE] | > 20 | > 20
CCCS(=O)(=O)Nc1ccc(F)c(C(=O)c2c[nH]c3ncc(-c4ccc(Cl)cc4)cc23)c1F [VEMURAFENIB] | > 20 | > 20
COc1ccc(C(CN(C)C)C2(O)CCCCC2)cc1 (stereo not drawn) [VENLAFAXINE] | > 20 | > 20
COc1cc2c(cc1OC)C(C)N(CCc1ccc(N)cc1)CC2 (stereo not drawn) [VERADOLINE] | > 20 | > 20
CC(C)(C)c1ccc(S(=O)(=O)Nc2ccc(Cl)cc2C(=O)c2cc[n+]([O-])cc2)cc1 [VERCIRNON] | > 20 | > 20
COc1ccc(N(C)c2nc(C)nc3ccccc23)cc1 [VERUBULIN] | > 20 | > 20
CCCCOc1nc(N)c2c(n1)N(Cc1cccc(CN3CCCC3)c1)CC(=O)N2 [VESATOLIMOD] | > 20 | > 20
COC[C@@H](c1ccc(C(F)(F)F)cc1)N1CCN(C2(C)CCN(C(=O)c3c(C)ncnc3C)CC2)C[C@@H]1C [VICRIVIROC] | > 20 | > 20
COc1cccc(-c2ccc(NC(=O)C3=C(C(=O)O)CCC3)c(F)c2)c1 [VIDOFLUDIMUS] | > 20 | > 20
CC(C)(C)NC(=O)c1ccc(Oc2cc(F)c(CC(=O)O)cc2Cl)c(NS(=O)(=O)c2ccc(C3CC3)cc2Cl)c1 [VIDUPIPRANT] | > 20 | > 20
C=CC(N)CCC(=O)O (stereo not drawn) [VIGABATRIN] | > 20 | > 20
N#C[C@@H]1CCCN1C(=O)CNC12CC3CC(CC(O)(C3)C1)C2 [VILDAGLIPTIN] | > 20 | > 20
CCOc1ccccc1OCC1CNCCO1 (stereo not drawn) [VILOXAZINE] | > 20 | > 20
CC[C@]12CCCN3CCc4c(n(c5ccccc45)C(=O)C1)[C@@H]32 [VINBURNINE] | > 20 | > 20
CC[C@]12CCCN3CCc4c(n(c5ccccc45)[C@@](O)(C(=O)OC)C1)[C@@H]32 [VINCAMINE] | > 20 | > 20
